# Values joined by “and” are separate entries in the source; they are usually repeats but may differ in a detail not shown here. Identical values can stand only once. Marks after values point to notes of the source that are not given here.
# Tests used:
# [1] = system: clots and flakes in the milk of transgenic rhFib cattle; assay: Clot scoring of milk of transgenic rhFib cattle during induced lactation; assay type: in vivo; design: key to clot scores / clot score: 0: Normal milk; 1: Flakes; 2: Less than 10 clots from the quarter on the CMT paddle; 3: Greater than 10 clots from the quarter on the CMT paddle; 4: Severe visible clots
# From the text: Recombinant human fibrinogen has been produced in the milk of transgenic cows for some years now. […] To score the level of clotting and to measure any effects, standards were set to determine whether treatment of the cows to reduce clotting was indeed effective. The standards are provided in Table I. Score level 0 is equal to normal milk from non-transgenic cows, whereas score level 4 equals a dramatic level of clotting and the milking machine is unable to extract the milk from the teat. CMT stands for ‘California Mastitis Test’ and is a standard cow side test that screens for the presence of mastitis, a known cause of milk clotting. When a cow is milked, the milk is collected in a so-called CMT paddle, which has four cups corresponding to the four quarters of the udder. To these cups, equal amounts of CMT solution (made up of a detergent to break down cell walls, a compound that reacts with the cellular DNA and a pH indicator; California Mastitis Test kit, TechniVet, Brunswick, Me.) is added after which the solution is swirled. The CMT solution provides an estimate of the number of cells in the milk (inflammatory cells due to infection by mastitis). As the cell content increases the mixture becomes thick and gel-like and the results are based on the appearance of the solutions. ‘Negative’ in the mastitis test means that the mixture remains fluid; ‘suspicious’ means that the mixture becomes slimy or gel like, and ‘positive’ means that the mixture distinctly forms a gel or jelly. […] The lack of mastitis was also confirmed by the fact that in laboratory tests no inflammatory-inducing bacteria were grown from the rhFib transgenic cow milk. Finally the clinical signs of the cows confirmed that infectious mastitis was not the etiology of the clotting. […] The (blue) staining by the CMT solution provided a useful tool to visualize the clots and helped to distinguish between some of the low scores of rate 1 and 2.
# A cow's udder has four quarters, each with their own teat. A cow may loose a quarter due to mastitis but still give milk through the remaining quarters. […] Therefore at each milking period, each quarter was given a clot score and recorded on her milk sheet form. The highest score on the paddle for each day was considered the cow's score for that day when complying the clotting data.
# With natural lactation, it is common for cattle to develop swelling and edema in their udders around the time of calving and as they “come into milk” during the first few weeks of lactation. This inflammation of the mammary tissue may activate the rhFib and lead to precipitation within the mammary tissue. This then may lead to a decrease in the milk production and difficulty in removing the milk from the gland. It was hypothesized by the inventors that by a non-natural lactation (that is: by a chemical/hormonal lactation induction), this udder swelling and edema would be avoided and the rhFib would not be activated. This would facilitate an easier lactation with minimal precipitation. For this reason, lactation induction was chosen to produce rhFib in cow #13.
# After this, all clot scores remained between 0-1. […] This dose was maintained during day 17 to day 31 and all clot scores still remained between 0-1.
# Seven transgenic rhFib cattle were induced to lactate using an estradiol-progesterone alcohol solution and dexamethasone injections as outlined above. From these seven animals, after an initial 34 days of milking, five transgenic cattle were selected to complete an ongoing 16 week lactation period (146 days in total). During this 16 week period 5 liters of milk was saved per animal per week for future production purposes. If an animal was to develop consistent clotting within this production period then a treatment trial with warfarin would begin. Data was collected on these animals to see what level of clot scores they generally reached. […]
# [2] = system: recombinant human fibrinogen (rhFib); assay: ELISA of rhFib concentration in the milk of warfarin-treated transgenic heifers; conditions: for rhFib level: ELISA, lines = day, warfarin started on day 1
# [3] = Determination of warfarin dosing in non-transgenic non-lactating cows (PT time, adverse effects); assay type: in vivo, cattle
# Description: An initial experiment was performed to determine a dose range of warfarin in cattle. […] The doses therein range from 0.012 to 0.57 mg/kg.
# An initial baseline Prothombin time (PT time) and Hematocrit (Hct) were determined. For cow #4289 Hct was 38 and PT was 25.9 seconds. For cow #6685 Hct was 27 and PT time was 26.7 seconds. PT time is a laboratory assay that reflects the depression of vitamin K dependent Factors II, -VII and -X. The PT times were used to determine the final dosing. The PT time test that is generally used in the art, looks at coagulation factors Factor I (fibrinogen), Factor II (prothrombin), Factor V, Factor VII and Factor X, that are all involved in clotting. The test measures the time it takes for a patient's blood to clot. […] The Hct value is helpful to determine if the animal is becoming anemic (i.e. blood loss that would not be grossly evident). In general, Hct is not checked unless one is concerned that blood loss is occurring.
# Initially a dose necessary to double the baseline PT times was to be determined and then the dose was to be increased to monitor for adverse affects. It was decided that if the PT levels began to be prolonged over 2.5 times baseline, or Hct fell below 15% the dose would be decreased. Likewise, it was held that the dose would be decreased or discontinued if any of the following disorders would appear: hematomas, anemia, epistaxis, hematemesis, hematuria, melena, hemathrosis, hemothrax, weakness or hematochezia, or bleeding within the udder. Therapy with vitamin K1 and whole blood would be initiated if there was evidence of […] bleeding.
# Moreover, and for the same reason, pregnant animals were also not treated with warfarin.
# The dose was increased by 10 mg/day until a dose of 100 mg/day was given (˜0.14 mg/kg). Then, this dose was maintained for 12 days. […] Therefore the following adjustments were made: First, the animal was sedated with xylazine, and second, blood was only collected from the jugular vein while the animal's head was tightly restrained. The dose was increased to 120 mg/day (˜0.17 mg/kg) for 17 days.
# It took 6 days of therapy for the PT times to double. […] For this reason, this dose of approximately 0.18 mg/kg was then considered unsafe for use in the transgenic rhFib cows.
# [4] = system: clots and flakes in the milk of rhFib transgenic cattle; assay: Clot scoring of milk of rhFib transgenic cow and heifers during natural lactation; assay type: in vivo; conditions: all five animals
# From the text: Recombinant human fibrinogen has been produced in the milk of transgenic cows for some years now. […] To score the level of clotting and to measure any effects, standards were set to determine whether treatment of the cows to reduce clotting was indeed effective. The standards are provided in Table I. Score level 0 is equal to normal milk from non-transgenic cows, whereas score level 4 equals a dramatic level of clotting and the milking machine is unable to extract the milk from the teat. CMT stands for ‘California Mastitis Test’ and is a standard cow side test that screens for the presence of mastitis, a known cause of milk clotting. When a cow is milked, the milk is collected in a so-called CMT paddle, which has four cups corresponding to the four quarters of the udder. To these cups, equal amounts of CMT solution (made up of a detergent to break down cell walls, a compound that reacts with the cellular DNA and a pH indicator; California Mastitis Test kit, TechniVet, Brunswick, Me.) is added after which the solution is swirled. The CMT solution provides an estimate of the number of cells in the milk (inflammatory cells due to infection by mastitis). […]
# A cow's udder has four quarters, each with their own teat. […] Therefore at each milking period, each quarter was given a clot score and recorded on her milk sheet form. […]
# [5] = for 5 days; cited from earlier work
# [6] = system: clot formation in the milk of a transgenic cow; assay: Heparin therapy in one transgenic cow, clot scores; assay type: in vivo
# Description: The inventors also used heparin therapy in one transgenic cow to evaluate if it would prevent clot formation at a dose of 150 IU/kg SQ twice a day, for 5 days. While when the heparin was administered to this cow, the clot scores decreased. […] However, due to the high costs of using heparin, that treatment was not further investigated. Other anticoagulants can be used but many have the disadvantage that they need to be injected intravenously or subcutaneously rather than be or administered orally.
compound,measurement,setting,value
CC(=O)CC(c1ccccc1)c1c(O)c2ccccc2oc1=O (centres unmarked) [warfarin],clot scores,"[1]; #462 and #463, dry off period after warfarin stopped",3 (Greater than 10 clots from the quarter on the CMT paddle)
same,clot score,"[1]; #462 at day 125, single score during treatment",1
same,clot scores,"[1]; #462 at day 149, after warfarin stopped at day 142, milk started to plug the filters",1
same,clot scores,"[1]; #463 at day 161, single quarter, after warfarin stopped at day 142",1
same,time until clot scores increased to level 3 after warfarin was stopped,"[1]; #474, stopped at day 142 of milking",≤ 3 days
same,"Highest clot score, #474 Frey","[1]; after discontinuation of warfarin on day 142 of lactation, lines = week of lactation",3* (Greater than 10 clots from the quarter on the CMT paddle)
same,clot scores,"[1]; cow #13, 0.12 mg/kg, day 17 to day 31",0-1
same,adverse effects,"[1]; cow #13, 0.12 or 0.13 mg/kg per day",No adverse effects were observed
same,clot scores,"[1]; cow #13, 7 days after warfarin therapy was re-initiated",1
same,clot scores,"[1]; cow #13, 18 days after warfarin was again discontinued, until dried off",2 (Less than 10 clots from the quarter on the CMT paddle)
same,clot scores,"[1]; cow #13, induced lactation, 0.13 mg/kg orally once a day from Time 0",0-1
same,clot scores,"[1]; cow #13, over the next 11 days after re-initiation",0
same,clot scores,"[1]; cow #13, warfarin discontinued for 19 days",2 (Less than 10 clots from the quarter on the CMT paddle)
same,clot scores reached with warfarin treatment,"[1]; cow #13, within a week (conclusion)",0-1
same,clot scores,"[1]; three heifers #462, #463, #474, within a week after warfarin therapy was initiated",1
same,PT times equal to or above twice the baseline value,"[1]; three rhFib-transgenic heifers, 0.10 mg/kg daily, PT monitored weekly",did not occur
same,rhFib level,[2]; heifer 462,1.3 mg/ml raw milk and 2.09 mg/ml raw milk
same,rhFib level,[2]; heifer 463,1.61 mg/ml raw milk
same,rhFib level,[2]; heifer 474,0.41 mg/ml raw milk and 0.58 mg/ml raw milk
same,concentration of rhFib in milk over time upon warfarin treatment,"[2]; three warfarin-treated heifers, while clot score levels drop",seem to increase
same,adverse effects,"[3]; cow #4289, 120 mg/day (~0.17 mg/kg) orally for 17 days",no adverse effects were observed
same,adverse effects,"[3]; cow #4289, 130 mg/day (~0.18 mg/kg) orally for 6 days, animal euthanized",developed a bleeding hematoma over the shoulder/thorax
same,days of therapy for the PT times to double,"[3]; cow #6685, 100 mg/day (~0.18 mg/kg)",6 days
same,adverse effects,"[3]; cow #6685, 100 mg/day (~0.18 mg/kg) orally for 14 days",No adverse affects were found
same,adverse reactions from the warfarin treatment,[4]; 0.10 to max 0.15 mg/kg,did not show any adverse reactions
same,highest clot scores,[4]; after a few days of warfarin 0.10 mg/kg,0-1
same,LD50 for cattle,[5],200 mg/kg/day
heparin,clot scores,"[6]; 150 IU/kg SQ twice a day for 5 days, during administration",decreased
same,clot scores,[6]; after heparin therapy was discontinued,remained low and decreased further with time

# From US9546381B2, “Use of anticoagulants in the production of recombinant proteins in the milk of transgenic animals” (priority 2010, dated 2017)
